This is an account of results in ChEMBL document CHEMBL4007440, “Development of the First Generation of Disulfide-Based Subtype-Selective and Potent Covalent Pyruvate Dehydrogenase Kinase 1 (PDK1) Inhibitors” (J Med Chem, 2017).

Active and inactive are the calls of the source. No cut-off for these calls is given here.

The test system of series [1] is A549. Put plainly: Antitumor activity against human A549 cells xenografted in BALB/c nude mouse assessed as tumor growth inhibition at 40 mg/kg, ip for 21 days measured on day 21 post dose relative to control. Format: functional. Particulars: 504 h, read-out: TGI. For orientation: In xenograft studies the graft and the host belong to different species.
Series [2] deals with [Pyruvate dehydrogenase (acetyl-transferring)] kinase isozyme 2, mitochondrial (Homo sapiens, UniProt Q15119). Put plainly: Inhibition of PDK2 (unknown origin) using full length His6-tagged PDHA1 as substrate after 30 mins by ELISA.
In series [3] the target is [Pyruvate dehydrogenase (acetyl-transferring)] kinase isozyme 3, mitochondrial (Homo sapiens, UniProt Q15120). Put plainly: Inhibition of PDK3 (unknown origin) using full length His6-tagged PDHA1 as substrate after 30 mins by ELISA. In general terms: ELISA stands for enzyme-linked immunosorbent assay.
The target in series [4] is T1, [Pyruvate dehydrogenase (acetyl-transferring)] kinase isozyme 1, mitochondrial (Homo sapiens, UniProt Q15118). Put plainly: Inhibition of PDK1 in human A549 cells assessed as reduction in extracellular acidification rate after 24 hrs by fluorescent biosensor based assay. Format: cell-based.
Series [5] deals with T1, [Pyruvate dehydrogenase (acetyl-transferring)] kinase isozyme 1, mitochondrial. The experiment in a line: Inhibition of full length His6-tagged PDK1 (unknown origin) expressed in Escherichia coli using full length His6-tagged PDHA1 as substrate after 30 mins by ELISA.
The target is the same in series [6]. The experiment in a line: Inhibition of PDK1 in human A549 cells assessed as reduction in phosphorylation of PDHE1 at S293 residue after 24 hrs by chemiluminescence/femtochemiluminescence method. Format: cell-based.
Series [7] has as its target T2, [Pyruvate dehydrogenase (acetyl-transferring)] kinase isozyme 4, mitochondrial (Homo sapiens, UniProt Q16654). Put plainly: Inhibition of PDK4 (unknown origin) at 10 uM using full length His6-tagged PDHA1 as substrate after 30 mins by ELISA.
Target sequence in this assay (Q16654 whole entry, looked up): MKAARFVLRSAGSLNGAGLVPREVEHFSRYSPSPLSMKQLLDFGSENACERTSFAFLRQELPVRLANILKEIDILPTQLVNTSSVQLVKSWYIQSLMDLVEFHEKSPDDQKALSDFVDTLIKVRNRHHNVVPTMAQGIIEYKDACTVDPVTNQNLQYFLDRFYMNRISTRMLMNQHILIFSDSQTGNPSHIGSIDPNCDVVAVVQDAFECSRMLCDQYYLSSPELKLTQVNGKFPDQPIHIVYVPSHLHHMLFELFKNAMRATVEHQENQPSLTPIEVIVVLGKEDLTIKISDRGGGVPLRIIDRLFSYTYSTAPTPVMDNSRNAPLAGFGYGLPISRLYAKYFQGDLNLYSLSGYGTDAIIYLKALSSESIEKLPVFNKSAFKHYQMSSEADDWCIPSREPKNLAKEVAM
The nature of series [8]: Antiproliferative activity against human Kelly cells after 72 hrs by CCK8 assay. (In general: Tetrazolium assays rely on reduction of a dye to a coloured formazan, in cell work by metabolically active cells.)
The test system of series [9] is A549. Put plainly: Antitumor activity against human A549 cells xenografted in BALB/c nude mouse assessed as tumor growth inhibition at 80 mg/kg, ip for 21 days measured on day 21 post dose relative to control. Format: functional. Particulars: 504 h, read-out: TGI.
Series [10] can be described thus: Antiproliferative activity against human GM00637 cells after 72 hrs by CCK8 assay. Type of series: cell-based. Particulars: GM00637, 72 h.
Series [11] addresses T1, [Pyruvate dehydrogenase (acetyl-transferring)] kinase isozyme 1, mitochondrial. Put plainly: Inhibition of PDK1 in human A549 cells assessed as reduction in phosphorylation of PDHE1 at S232 residue after 24 hrs by chemiluminescence/femtochemiluminescence method. Type of series: cell-based.
In another series the test system is Mus musculus. The experiment in a line: Toxicity in BALB/c nude mouse assessed as body weight loss at 40 to 80 mg/kg, ip for 21 days. Type of series: organism-based. Particulars: in vivo, 504 h.
In series [12] the target is T1, [Pyruvate dehydrogenase (acetyl-transferring)] kinase isozyme 1, mitochondrial. The experiment in a line: Inhibition of full length His6-tagged PDK1 (unknown origin) expressed in Escherichia coli using full length His6-tagged PDHA1 as substrate in presence of GSH after 30 mins by ELISA.
The target is the same in series [13]. The experiment in a line: Inhibition of PDK1 in human A549 cells assessed as increase in reactive oxygen species after 24 hrs by dihydroethidium staining based FACS analysis. Format: cell-based.
The next series deals with L02. The experiment in a line: Antiproliferative activity against human LO2 cells after 72 hrs by CCK8 assay. Format: cell-based. Particulars: L02, 72 h.
For series [14], the system named is A549. Put plainly: cells. Particulars: Homo sapiens, A549, 72 h.
Description: Antiproliferative activity against human A549 cells after 72 hrs by CCK8 assay
Series [15] deals with A549. Put plainly: Antitumor activity against human A549 cells xenografted in BALB/c nude mouse assessed as reduction in tumor weight at 40 to 80 mg/kg, ip for 21 days measured on day 21 post dose. Format: functional, organism-based.
For series [16], the target named is T1, [Pyruvate dehydrogenase (acetyl-transferring)] kinase isozyme 1, mitochondrial. The experiment in a line: Inhibition of PDK1 in human A549 cells assessed as reduction in phosphorylation of PDHE1 at S232 residue at 10 uM after 24 hrs by chemiluminescence/femtochemiluminescence method. Format: cell-based.
For series [17] the target is unchanged. The experiment in a line: Inhibition of PDK1 in human A549 cells assessed as reduction in phosphorylation of PDHE1 at S293 residue at 1 uM after 24 hrs by chemiluminescence/femtochemiluminescence method. Type of series: cell-based.
For series [18] the target is unchanged. Put plainly: Inhibition of PDK1 in human A549 cells assessed as reduction in phosphorylation of PDHE1 at S232 residue at 1 uM after 24 hrs by chemiluminescence/femtochemiluminescence method. Format: cell-based.
The target is the same in series [19]. Put plainly: Inhibition of PDK1 in human A549 cells assessed as reduction in phosphorylation of PDHE1 at S293 residue at 10 uM after 24 hrs by chemiluminescence/femtochemiluminescence method. Format: cell-based.
Series [20] addresses T2, [Pyruvate dehydrogenase (acetyl-transferring)] kinase isozyme 4, mitochondrial. Put plainly: Inhibition of PDK4 (unknown origin) using full length His6-tagged PDHA1 as substrate after 30 mins by ELISA.
Target sequence in this assay (Q16654 whole entry): as the sequence (Q16654 whole entry, looked up) above

T1 sequence (Q15118 whole entry): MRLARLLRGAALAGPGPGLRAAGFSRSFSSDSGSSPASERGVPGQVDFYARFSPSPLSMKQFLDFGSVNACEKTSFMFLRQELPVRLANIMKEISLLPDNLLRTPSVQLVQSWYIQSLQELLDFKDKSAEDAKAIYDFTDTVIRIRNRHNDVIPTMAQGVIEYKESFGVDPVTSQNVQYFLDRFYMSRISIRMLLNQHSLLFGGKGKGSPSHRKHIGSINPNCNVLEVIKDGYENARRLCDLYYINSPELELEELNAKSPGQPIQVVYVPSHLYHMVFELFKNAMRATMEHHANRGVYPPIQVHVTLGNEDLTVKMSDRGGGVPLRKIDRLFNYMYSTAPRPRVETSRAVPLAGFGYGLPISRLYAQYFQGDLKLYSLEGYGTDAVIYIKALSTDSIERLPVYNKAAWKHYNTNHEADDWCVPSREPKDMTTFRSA
Sequence of [Pyruvate dehydrogenase (acetyl-transferring)] kinase isozyme 3, mitochondrial (Q15120 whole entry): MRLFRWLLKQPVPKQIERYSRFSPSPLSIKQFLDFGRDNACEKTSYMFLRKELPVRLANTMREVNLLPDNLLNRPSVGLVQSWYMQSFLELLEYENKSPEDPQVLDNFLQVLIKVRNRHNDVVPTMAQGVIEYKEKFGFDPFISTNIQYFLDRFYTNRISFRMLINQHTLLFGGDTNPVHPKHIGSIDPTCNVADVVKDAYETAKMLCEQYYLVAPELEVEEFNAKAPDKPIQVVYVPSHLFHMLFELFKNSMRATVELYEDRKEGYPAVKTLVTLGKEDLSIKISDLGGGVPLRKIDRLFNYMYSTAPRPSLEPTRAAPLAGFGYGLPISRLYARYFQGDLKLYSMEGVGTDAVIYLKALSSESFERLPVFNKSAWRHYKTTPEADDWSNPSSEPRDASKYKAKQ

With `S=C(SSC(=S)N1CCOCC1)N1CCOCC1`, the inhibition in vivo at 40 mg/kg in the series with A549 [1] is 27.7%. The inhibition constant (Ki) was 0.176 µM in [2], 2.85 µM in [3] and 0.462 µM in series [5]. Also, the inhibition result in series [4], in series [6], in [11] and in series [13] was “Dose-dependent effect” in each case. Moreover, the IC50 in [5] is 0.049 µM; in series [8], 0.289 µM; in series [10], over 10 µM; in the series on L02, over 10 µM; in the series with A549 [14] it was 0.48 µM. The inhibition result in [7] and in [12] was “inactive” throughout. In addition, the inhibition in vivo at 80 mg/kg with A549 [9] is 50.4%. Besides, in the series on Mus musculus, the Activity result is “Non-Toxic”. The result in the series with A549 [15] was Active.

For `S=C(SSC(=S)N1CCCOCC1)N1CCCOCC1`, in the series on A549 [1], the inhibition in vivo at 40 mg/kg is 26.2%. Further, the Ki in series [2] was determined as 1.28 µM; in series [3], 7.76 µM; in series [5], 0.109 µM. The inhibition result in [4], in series [6], in series [11] and in [13] was “Dose-dependent effect” each time. In addition, the IC50 in [5] is 0.026 µM; in series [8] it was 0.057 µM; in [10] it was over 10 µM; in the series with L02 it was over 10 µM; in the series with A549 [14] it was 0.225 µM. Besides, the inhibition result in series [7] and in [12] was “inactive” throughout. In addition, the inhibition entry in [16], in series [17], in [18] and in [19] was “Active” throughout. Further, the inhibition in vivo at 80 mg/kg in the series with A549 [9] was 47.8%. Further, the Activity entry in the series with Mus musculus is listed as “Non-Toxic”. The outcome in the series on A549 [15] was Active.

On to `O=C(O)C(Cl)Cl` [DICHLOROACETIC ACID], for which the IC50 in series [2] is 504 µM; in [3], 5560 µM; in [20], 727 µM; in [8], 11100 µM; in series [10], 13800 µM; with L02 it was over 15000 µM. In series [12], the inhibition entry is “Active”.

As a reminder, the Ki is the dissociation constant of the complex between target and ligand, obtained from inhibition or displacement. The IC50 is the concentration needed to halve the response being measured.
